Test results taken from US6583154B1, “Compounds and methods which modulate feeding behavior and related diseases” (Amgen Inc., priority 1998, dated 2003).
Structures can show the parent of a compound that is named as a salt.

How the values were obtained:
Male BALB-C mice = assay: IP administration of compounds in fasted male BALB-C mice, 2 hr food intake; assay type: in vivo; conditions: Mus musculus; male BALB-C mice fasted 18-20 hr; 30 mg/kg (ip) in 2% tween; food given after 30 min, weighed 2 hr later; vs vehicle; read-out: inhibition of feeding (2 hr food intake)
Text: Protocol For IP Administration Of Compounds In Male BALB-C Mice.
Male BALB-C mice (20-25 g)were obtained from Charles Rivers (Wilmington, Mass.) and were given at least a one week acclimation period to Amgen's animal care facilities. Animals were housed 10/cage and were provided ad libitum food and water. For testing, mice were fasted for 18-20 hr (overnight) prior to the start of the experiment. On the day of the experiment, mice were removed from group housing and placed into individual cages (without food). Test compounds or vehicle was then administered via the intraperitoneal (i.p.) route of administration. Test compounds were suspended in a 2% tween solution; the 2% tween solution was used as the vehicle treatment (control group). Group sizes for each treatment were 6-8 animals. After 30 min, premeasured food was placed into the cages. Two hours later, the food was weighed again. The difference between 2 hr weight and the premeasured weight was taken as 2 hr food intake.

Long-Evans male rats = assay: IP administration of compounds in fasted Long-Evans male rats, 2 hr food intake; assay type: in vivo; conditions: Rattus norvegicus; male Long Evans rats fasted 18-20 hr; 30 mg/kg (ip) in 2% tween; food given after 30 min, weighed 2 hr later; vs vehicle; read-out: inhibition of feeding (2 hr food intake)
Protocol: Protocol for IP Administration of Compounds in Fasted Long-Evans Male Rats
Male Long Evans rats (85-100 g)were obtained from Harlan (Indianapolis, Ind.) and were given at least a one week acclimation period to Ambients animal care facilities. Animals were individually housed and were provided ad libitum food and water. For testing, rats were fasted for 18-20 hr (overnight) prior to the start of the experiment. On the test day, test compounds or vehicle was administered via the intraperitoneal (i.p.) route of administration. Test compounds were suspended in a 2% tween solution; the 2% tween solution was used as the vehicle treatment (control group). Group sizes for each treatment were 6-8 animals. After 30 min, premeasured food was placed into the cages. Two hours later, the food was weighed again. The difference between 2 hr weight and the premeasured weight was taken as 2 hr food intake.

Structure (SMILES) | inhibition in vivo at 30 mg/kg (Male BALB-C mice) [%] | inhibition in vivo at 30 mg/kg (Long-Evans male rats) [%]
Cc1nc(N2CCCCC2)c2[nH]c(C(C)(C)C)cc2n1 [Example 97, 6-(tert-Butyl)-2-methyl-4-piperidylpyrrolo[3,2-d]pyrimidine Hydrochloride Hydrate] | ≥ 10 | ≥ 10
Cc1nc(N2CCCCC2)c2[nH]c(-c3ccn(S(=O)(=O)c4ccccc4)c3)cc2n1 [Example 101, 3-(2-Methyl-4-piperidylpyrrolo[4,5-d]pyrimidin-6-yl)-1-(phenylsulfonyl)pyrrole Hydrochloride Hydrate] | ≥ 10 | ≥ 10
Cc1nc(N2CCCCC2)c2[nH]c(-c3cc(C)oc3C)cc2n1 [Example 108, 2,5-Dimethyl-3-(2-methyl-4-piperidylpyrrolo[4,5-d]pyrimidin-6-yl)furan Hydrochloride Monohydrate] | ≥ 10 | ≥ 10
Cc1nc(N2CCCCC2)c2[nH]c(-c3ccc(C(F)(F)F)cc3)cc2n1 [Example 111, 2-Methyl-4-piperidyl-6-[4-(trifluoromethyl)phenyl]pyrrolo[3,2-d]pyrimidine Hydrochloride Hydrate] | ≥ 10 | ≥ 10
Cc1nc(N2CCCCC2)c2[nH]c(-c3cc(F)c(F)c(F)c3)cc2n1 [Example 116, 2-Methyl-4-piperidyl-6-(3,4,5-trifluorophenyl)pyrrolo[3,2-d]pyrimidine Hydrochloride Hydrate] | ≥ 10 | ≥ 10
Cc1nc(N2CCCCC2)c2[nH]c(-c3ccc(Cl)c(Cl)c3)cc2n1 [Example 118, 6-(3,4-Dichlorophenyl)-2-methyl-4-piperidylpyrrolo[3,2-d]pyrimidine Hydrochloride Monohydrate] | ≥ 10 | ≥ 10
COc1ccc(-c2cc3nc(C)nc(N4CCCCC4)c3[nH]2)cc1F [Example 119, 2-Fluoro-1-methoxy-4-[2-methyl-4-piperidylpyrrolo[4,5-d]pyrimidin-6-yl]benzene Hydrochloride Hydrate] | ≥ 10 | ≥ 10
Cc1nc(N2CCCCC2)c2[nH]c(-c3ccc(F)c(F)c3)cc2n1 [Example 121, 6-(3,4-Difluorophenyl)-2-methyl-4-piperidylpyrrolo[3,2-d]pyrimidine Hydrochloride Hydrate] | ≥ 10 | ≥ 10
Cc1nc(N2CCCCC2)c2[nH]c(-c3cc(C(F)(F)F)cc(C(F)(F)F)c3)cc2n1.Cl [Example 122, 6-((3,5-bis(Trifluoromethyl)phenyl)-2-methyl-4-piperidylpyrrolo[3,2-d]pyrimidine Hydrochloride] | ≥ 10 | ≥ 10
Cc1nc(N2CCCCC2)c2[nH]c(-c3ccc(SC(F)(F)F)cc3)cc2n1 [Example 123, Trifluoro[4-(2-methyl-4-piperidylpyrrolo[4,5-d]pyrimidin-6-yl)phenylthio]methane Hydrochloride Monohydrate] | ≥ 10 | ≥ 10
Cc1nc(N2CCCCC2)c2[nH]c(-c3ccc(C)c(C)c3)cc2n1 [Example 124, 6-(3,4-Dimethylphenyl)-2-methyl-4-piperidylpyrrolo[3,2-d]pyrimidine Hydrochloride Hydrate] | ≥ 10 | ≥ 10
Cc1nc(NC[C@H]2CC[C@H](CNS(=O)(=O)c3cccc4ccccc34)CC2)c2[nH]c(-c3ccccc3)cc2n1 [Example 194, trans-[(4-{[(2-Methyl-6-phenylpyrrolo[2,3-e]pyrimidin-4-yl)amino]methyl}cyclohexyl)methyl](naphthylsulfonyl)amine Hydrochloride Hydrate] | ≥ 10 | ≥ 10
Cc1nc(N2CCCCC2)c2[nH]c(-c3ccc(OC(F)(F)F)cc3)cc2n1 [Example 195d, Trifluoro[4-(2-methyl-4-piperidylpyrrolo[4,5-d]pyrimidin-6-yl)phenoxylmethane Hydrochloride Monohydrate] | ≥ 10 | ≥ 10
